Groups on a side chain read outwards from the residue. No end group written: not given here. BMPH = maleimide-and-hydrazide crosslinker; PPCN hydrogel = not defined here
Legend:
Human dermal fibroblasts = assay: In vitro 3D cell culture, live/dead stain, confocal imaging of cell spreading; format: cell-based; settings: HDFs
Experimental: Cell culture medium (KGM-Gold for HEKa, DMEM+10% FBS for HDF) was then added to each well, and cells were cultured at 37° C. and 5% CO2. After 5 or 10 days, the gels were washed twice with warm 1×PBS, and stained with live/dead stain (2 uM calcein AM and 2 uM ethidium homodimer-1) at 37° C. for 15 min. The samples were then washed twice with warm 1×PBS and imaged on a Nikon C2 Confocal microscope.

HDFs [1] = assay: Cell cycle analysis by flow cytometry with propidium iodide; format: cell-based, human; settings: HDFs in gel
Experimental: A flow cytometric analysis, with propidium iodide (PI), was performed in order to measure the cell cycle activity. At each time point, cell encapsulated scaffolds were liquefied, and the cells were extracted via centrifuging. The cells were then washed with ice-cold PBS, and fixed with 70% ice-cold ethanol for 1 h before repeated washing with PBS and re-suspension in PBS with 0.5 mg/mL Rnase A (Thermo Fisher Scientific). After 1 h incubation, the cellular DNA was then stained with PI (50 μg/mL) for 20 min while protected from the light at 4° C. The relative DNA concentration of the stained cells was measured using a BD LSRII flow cytometer (Becton Dickinson, San Jose, Calif.).

HDFs [2] = assay: PicoGreen total DNA quantification (proliferation in 3D culture); format: cell-based, human; settings: HDFs in gel, over the course of 10 days
Experimental: HDF encapsulated hydrogel scaffold samples were prepared and cultured using the same method as the in vitro 3D cell culture with 10 K cells per 50 μl hydrogel per sample. At each time point, after removing the medium, the samples were cooled on ice, and the cells were lysed by PBS-3% Triton-X. The Quant-iT PicoGreen dsDNA assay kit (Life Technologies) was employed according to the manufacturer's protocol, and the results were read in triplicates. Samples of […] were accessed using microplate reader (Tecan, Männedorf, Switzerland); fluorescence was quantified at 520 nm with excitation at 480 nm.

[3] = system: integrin α3 and α6 on HDFs; assay: Proliferation inhibition with anti-integrin α3 and α6 antibodies; format: cell-based, human; settings: 5 days
Experimental: The mouse monoclonal antibody against human integrin α6 and α3 were purchased from Santa Cruz (Dallas, T A), and dialyzed with 10,000 MWCO Dialysis Cassettes dialysis cassette (Thermo Scientific) overnight to remove the sodium azide. […] Before cell encapsulation, HDFs were pre-incubated in suspension with corresponding anti-integrin antibodies (final concentration 10 μg/mL) for 15 min at 37° C. Then the pre-treated HDFs (1×10^4 cells per 50 μL scaffold per well) were incubated on the ultra-low attachment plate (Coring, Coring, NY) for 5 days at 37° C. in 5% CO2. Anti-integrin antibodies treatments were also added in the culture media for the corresponding groups (10 μg/mL), and the media was changed every other day. After 5 days of incubation, total DNA content within each scaffold was quantified using PicoGreen DNA quantification assay as mentioned above.

[4] = system: db/db mice full-thickness wound; assay: Diabetic splinted excisional wound healing model, wound closure; format: in vivo, mouse
Experimental: To prevent skin contraction, paired pre-sterilized doughnut-shaped splints (10-mm inner diameter; 12-mm outer diameter) made from 0.5-mm-thick acrylate tape (3M, St. Paul, Minn.) were attached to the left and right dorsal sides of the mouse with Vetbond (3M) and interrupted 6-0 nylon sutures (Ethicon, Cincinnati, Ohio) after depilation. A 6-mm circular, full-thickness wound was made in the center of each splinted area. 40 μl of gel solution was applied to each wound bed. A transparent sterile occlusive dressing TegaDerm™ (3M) was then placed over the wound and the splint. Digital images of the wound area were taken every other day, and quantified in ImageJ by normalizing the wound area to the known splint area at each time point. Hydrogel dressings were reapplied on day 6, after gently rinsing the wound with cold 1× PBS.

db/db mice wound tissue = assay: Histology and immunofluorescence of regenerated wound tissue; format: in vivo, mouse
Excerpt: Upon full closure of the wounds (for the first batch study) or 10 days after the initial wound surgery (for the second batch study), animals were euthanized and the regenerated wound tissue was excised with a 10-mm biopsy punch (Acuderm, Fort Lauderdale, Fla.), fixed using 4% paraformaldehyde and embedded by paraffin. The tissues were then sectioned and processed for hematoxylin and eosin (H&E) staining to measure granulation tissue thickness, and the epithelial gap histomorphometrically. The granulation tissue thickness and epithelial gap was measured based on 5 different H&E images for each group by blinded observer using ImageJ. The tissue sections were also stained for Keratin 10, Integrin α3 or F4/80 (Santa Cruz, Dallas, Tex.) The secondary antibodies used were either conjugated to AlexaFluor488 or AlexaFluor555 (Invitrogen, Carlsbad, Calif.).

[5] = system: human dermal fibroblasts and human epithelial keratinocytes; assay: Self-assembled monolayer (SAM) cell adhesion assay; format: cell-based; settings: HDFs and HEKas
Experimental: Cysteine-terminated peptides were synthesized manually on Fmoc-Rink amide MHBA resin using a standard solid phase peptide synthesis protocol. They were purified using reverse-phase HPLC with a C18 column, and the final products were characterized by matrix-assisted laser desorption/ionization time of flight mass spectrometry (MALDI-TOF MS). Self-assembled monolayer cell adhesion assay was performed (ref 56; incorporated by reference in its entirety). Maleimide-terminated alkanethiol was self-assembled on the gold surfaces to form the well-organized monolayer. Known amount of characterized Cysteine-terminated peptides were dissolve in 0.1% trifluoroacetic acid solution and incubate with the surface to allow peptide absorption on the surface via thiol-maleimide reaction. The resulting surfaces were characterized by MALDI-TOF MS for peptide adsorption before being used for HDFs and HEKas adhesion studies. The adherent cells were counted 2 hours after the initial seeding. […]
The synthesized peptides were immobilized onto SAM chips by incubating the chips with 100 μM peptide solution in PBS at room temperature for 1 hr. […] Peptide chips were then mounted with Vectashield+DAPI and imaged on a Nikon Eclipse TE2000-U inverted fluorescence microscope. The number of cells per field of view was counted using ImageJ software. […]

P-A5G81: PPCN hydrogel conjugated via BMPH linker to cysteine-terminated A5G81 peptide (AGQWHRVSVRWGC([BMPH-PPCN hydrogel])-NH2; reading uncertain; also: conjugated to PPCN hydrogel via BMPH linker at C-terminal Cys)
cell spreading in 3D culture (Human dermal fibroblasts; day 5): began to spread
cell spreading in 3D culture (Human dermal fibroblasts; day 10): fully elongated with typical fibroblast morphology
S phase percentage (HDFs [1]; day 5): 21%
S phase percentage (HDFs [1]; day 10): 26.6%
cell proliferation rate (total DNA content) (HDFs [2]): higher cell proliferation rate
cell proliferation (total DNA) under complete blocking ([3]; both anti-α3 and anti-α6, 10 μg/mL): close to the unfunctionalized PPCN scaffold
cell proliferation (total DNA) under partial blocking ([3]; only anti-α3 or anti-α6, 10 μg/mL): partial decrease of the cell proliferation
time to complete wound closure [4]: 21 days
percent wound closure ([4]; day 10): 45.3%
complete closure faster than P-RGD ([4]; versus P-RGD): 3 days
complete closure faster than PPCN and P-IP ([4]; versus PPCN and P-IP): one week faster
granulation tissue thickness (db/db mice wound tissue; by the time of closure, compared with PPCN, P-RGD and P-IP groups): significantly thicker
wound histology at day 10 within the same animal (db/db mice wound tissue; db/db mice, day 10, P-A5G81 side vs P-IP side): thick granulation tissue was already prominent
epidermal gap relative to that of the P-IP control wounds (db/db mice wound tissue; db/db mice, day 10, after two applications): 25%
epithelial gap (db/db mice wound tissue; db/db mice, day 30): 340 μm
integrin α3 positive cells in wound tissue (db/db mice wound tissue; db/db mice, day 30): significant amount of α3 positive cells
wound opening relative to the initial wound size (db/db mice wound tissue; db/db mice, day 30): around 5%
macrophage marker F4/80 staining (db/db mice wound tissue; db/db mice, day 30, foreign body response): minimum amount of macrophages
Keratin 10 staining, epithelium structure (db/db mice wound tissue; db/db mice, day 30, wound centre): multi-layer epithelium structure

IP: inactive form of A5G81 (WHRVSVC), negative control (WHRVSVC-NH2) [reference compound]
cell adhesion on SAMs presenting the peptide [5]: very low cell adhesive properties

A5G81: 12 amino acid laminin α5 globular domain derived peptide AGQWHRVSVRWG (listed as Mus musculus)
cell adhesion on SAMs presenting the peptide [5]: excellent cell adhesion properties

Source: US10463745B2, “Materials for tissue regeneration” (Northwestern University, priority 2015, dated 2019)
